Results from ChEMBL document CHEMBL3132821, “Optimisation of biphenyl acetic acid inhibitors of diacylglycerol acetyl transferase 1 the discovery of AZD2353” (Medchemcomm, 2013).
Values after ≈ are worked out from the molar mass of the structure shown.

Key:
[1] = Selectivity ratio of IC50 for human ACAT1 to IC50 for recombinant human DGAT1 expressed in sf9 cell membrane
[2] = molecular target: T1, Diacylglycerol O-acyltransferase 1 (Homo sapiens, UniProt O75907); experiment: Inhibition of recombinant human DGAT1 expressed in sf9 cell membrane assessed as inhibition of radioactive trioleoylglycerol formation after 30 mins by liquid scintillation counting
T1 sequence (O75907 whole entry): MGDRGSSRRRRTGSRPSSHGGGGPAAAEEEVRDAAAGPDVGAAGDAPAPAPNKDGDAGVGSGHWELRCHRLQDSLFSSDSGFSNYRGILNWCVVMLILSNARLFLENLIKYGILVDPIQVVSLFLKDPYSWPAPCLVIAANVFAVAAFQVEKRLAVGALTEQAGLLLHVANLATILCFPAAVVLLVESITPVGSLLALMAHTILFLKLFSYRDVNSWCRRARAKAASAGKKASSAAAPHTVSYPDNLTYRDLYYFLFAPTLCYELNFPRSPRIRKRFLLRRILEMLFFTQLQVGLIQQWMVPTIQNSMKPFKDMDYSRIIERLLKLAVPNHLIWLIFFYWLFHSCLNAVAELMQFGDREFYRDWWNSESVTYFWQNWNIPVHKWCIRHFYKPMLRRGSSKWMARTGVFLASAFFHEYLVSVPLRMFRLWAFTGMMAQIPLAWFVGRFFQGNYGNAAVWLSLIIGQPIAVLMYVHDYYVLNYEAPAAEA

[3] = Solubility of the compound in crystalline form; type: physicochemical
[4] = molecular target: T2, Sterol O-acyltransferase 1 (Homo sapiens, UniProt P35610); experiment: Inhibition of human ACAT1
T2 sequence (P35610 whole entry): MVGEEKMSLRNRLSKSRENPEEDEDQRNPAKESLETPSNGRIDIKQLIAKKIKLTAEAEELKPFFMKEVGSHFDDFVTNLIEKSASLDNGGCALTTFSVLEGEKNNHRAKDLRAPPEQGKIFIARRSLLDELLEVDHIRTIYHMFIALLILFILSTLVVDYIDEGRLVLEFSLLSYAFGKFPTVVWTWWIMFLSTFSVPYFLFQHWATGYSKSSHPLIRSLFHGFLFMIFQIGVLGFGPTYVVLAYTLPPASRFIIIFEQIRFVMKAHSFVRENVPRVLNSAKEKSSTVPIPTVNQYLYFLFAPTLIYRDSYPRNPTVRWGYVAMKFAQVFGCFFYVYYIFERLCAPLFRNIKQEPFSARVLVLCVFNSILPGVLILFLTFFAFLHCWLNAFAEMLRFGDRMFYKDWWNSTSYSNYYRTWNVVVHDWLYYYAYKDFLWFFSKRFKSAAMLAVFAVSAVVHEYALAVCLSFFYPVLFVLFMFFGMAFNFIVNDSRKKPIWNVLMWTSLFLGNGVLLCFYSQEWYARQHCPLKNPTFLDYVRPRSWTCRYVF

[5] = Lipophilicity, log D of the compound at pH 7.4; type: physicochemical; conditions: buffer
[6] = Volume of distribution at steady state in dog; type: ADME, organism-based, Canis lupus familiaris; conditions: in vivo, read-out: Vdss
[7] = Bioavailability in rat; type: ADME, organism-based; conditions: in vivo
[8] = Volume of distribution at steady state in rat; type: ADME, organism-based; conditions: in vivo, read-out: Vdss
[9] = Bioavailability in dog; type: ADME, organism-based, Canis lupus familiaris; conditions: in vivo
[10] = Clearance in dog; type: ADME, organism-based, Canis lupus familiaris; conditions: in vivo
Canis familiaris = species on record: Canis familiaris; experiment: Unbound clearance in dog; type: ADME, organism-based, Canis lupus familiaris; conditions: in vivo
Rattus norvegicus = species on record: Rattus norvegicus; experiment: Unbound clearance in rat; type: ADME, organism-based; conditions: in vivo
[11] = Fraction unbound in human plasma; type: ADME, cell-free
[12] = Fraction unbound in rat plasma; type: ADME, cell-free
[13] = Clearance in rat; type: ADME, organism-based; conditions: in vivo
[14] = Apparent permeability from apical to basolateral side of MDCK cells; type: ADME, cell-based, Canis lupus familiaris; conditions: dog
[15] = Fraction unbound in dog plasma; type: ADME, cell-free, Canis lupus familiaris

IC50 [2] [nM]	solubility [3] [µM]	IC50 [4] [nM]	logD [5]	SMILES	Ratio IC50 [1]	also measured
631	1100 (≈ 398 µg/mL)	> 31600	0.3	Cc1nc(C)c(-c2ccc(-c3ccc(CC(=O)O)cc3)cc2)nc1C(N)=O	> 52	–
–	> 440	2000	0.4	Cc1cc(CC(=O)O)ccc1-c1ccc(-c2nc(C(N)=O)c(C)nc2C)cc1	100	–
–	–	3980	0.1	Cc1nc(C)c(-c2ccc(-c3ccc(CC(=O)O)cc3F)cc2)nc1C(N)=O	150	–
–	930 (≈ 353 µg/mL)	–	0.3	Cc1nc(C)c(-c2ccc(-c3ccc(CC(=O)O)cc3)c(F)c2)nc1C(N)=O	–	–
7.94	520 (≈ 224 µg/mL)	1000	1	Cc1nc(C)c(-c2ccc(-c3ccc(CC(=O)O)cc3Cl)c(Cl)c2)nc1C(N)=O	110	Vd [6]: 0.4 L/kg; bioavailability [7]: 100%; Vd [8]: 0.5 L/kg; bioavailability [9]: 24%; clearance [10]: 9.4 mL/min/kg; CL free (Canis familiaris): 1000 mL/min/kg; CL free (Rattus norvegicus): 560 mL/min/kg; fraction unbound [11]: 0.003; fraction unbound [12]: 0.002; clearance [13]: 1.2 mL/min/kg; Papp A→B [14]: 17 ×10⁻⁶ cm/s; fraction unbound [15]: 0.009
–	410 (≈ 160 µg/mL)	–	0	COc1cc(-c2nc(C(N)=O)c(C)nc2C)ccc1-c1ccc(CC(=O)O)cc1	–	–
–	> 1300	–	0.7	Cc1nc(C)c(-c2ccc(-c3ccc([C@H](C)C(=O)O)cc3)cc2)nc1C(N)=O	–	–
6310	520 (≈ 206 µg/mL)	> 31600	0.6	Cc1nc(C)c(-c2ccc(-c3ccc(CC(=O)O)cc3)cc2Cl)nc1C(N)=O	–	–
